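These data come from cells grown in 96-well plates and exposed to compound for 48 hours at five concentrations. Here, GI50 denotes the concentration required for 50% inhibition of growth. The concentration for full growth arrest is given as TGI.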
How the values were obtained:
Test in all cases: inhibition of tumour cell growth, NCI panel, 48 h
[1] = tested on: 786-0 renal
[2] = tested on: A498 renal
[3] = tested on: A549 NSCLC
[4] = tested on: ACHN renal
[5] = tested on: BT-549 breast
[6] = tested on: CAKI-1 renal
[7] = tested on: CCRF-CEM leukemia
[8] = tested on: COLO 205 colon
[9] = tested on: DU-145 prostate
[10] = tested on: EKVX NSCLC
[11] = tested on: HCC-2998 colon
[12] = tested on: HCT-116 colon
[13] = tested on: HCT-15 colon
[14] = tested on: HL-60(TB) leukemia
[15] = tested on: HOP-62 NSCLC
[16] = tested on: HOP-92 NSCLC
[17] = tested on: HS 578T breast
[18] = tested on: HT29 colon
[19] = tested on: IGROV1 ovarian
[20] = tested on: K-562 leukemia
[21] = tested on: KM12 colon
[22] = tested on: LOX IMVI melanoma
[23] = tested on: M14 melanoma
[24] = tested on: MALME-3M melanoma
[25] = tested on: MCF7 breast
[26] = tested on: MDA-MB-231 breast
[27] = tested on: MDA-MB-435
[28] = tested on: MOLT-4 leukemia
[29] = tested on: NCI-H226 lung
[30] = tested on: NCI-H460 lung
[31] = tested on: NCI-H522 lung
[32] = tested on: NCI/ADR-RES ovarian
[33] = tested on: OVCAR-4 ovarian
[34] = tested on: OVCAR-5 ovarian
[35] = tested on: OVCAR-8 ovarian
[36] = tested on: PC-3 prostate
[37] = tested on: RPMI-8226 leukemia
[38] = tested on: RXF 393 renal
[39] = tested on: SF-268 CNS
[40] = tested on: SF-295 CNS
[41] = tested on: SF-539 CNS
[42] = tested on: SK-MEL-2 melanoma
[43] = tested on: SK-MEL-28 melanoma
[44] = tested on: SK-MEL-5 melanoma
[45] = tested on: SK-OV-3 ovarian
[46] = tested on: SN12C renal
[47] = tested on: SNB-19 CNS
[48] = tested on: SNB-75 CNS
[49] = tested on: SR leukemia
[50] = tested on: SW-620 colon
[51] = tested on: T-47D breast
[52] = tested on: TK-10 renal
[53] = tested on: U251 CNS
[54] = tested on: UACC-257 melanoma
[55] = tested on: UACC-62 melanoma
[56] = tested on: UO-31 renal
[57] = tested on: NCI-H23 lung
[58] = tested on: OVCAR-3 ovarian

`CC1(C)CC[C@]23CC[C@]4(C)[C@H](CC[C@@H]5[C@@]6(C)CC[C@H](NCO)C(C)(C)[C@@H]6CC[C@]54C)[C@H]2[C@H]1OC3` showed a GI50 [1] of 3.77 µM, a TGI [1] of 15.3 µM and a GI50 [2] of 14.1 µM. It also gave a TGI [2] of 27.1 µM, a GI50 [3] of 4.39 µM and a TGI [3] of 18.1 µM. For the same compound, the GI50 [4] was 5.01 µM, the TGI [4] was 17.1 µM and the GI50 [5] was 15.6 µM. The TGI [5] was 28.9 µM, the GI50 [6] was 10.2 µM and the TGI [6] was 23.3 µM. The GI50 [7] was 5.93 µM, the TGI [7] was > 100 µM and the GI50 [8] was 2.06 µM. For the same compound, the TGI [8] was 4.18 µM, the GI50 [9] was 14.1 µM and the TGI [9] was 32 µM. It also gave a GI50 [10] of 16.9 µM, a TGI [10] of 32.5 µM and a GI50 [11] of 1.95 µM. For the same compound, the TGI [11] was 4.17 µM, the GI50 [12] was 3.7 µM and the TGI [12] was 12.9 µM. For the same compound, the GI50 [13] was 2.9 µM, the TGI [13] was 10.9 µM and the GI50 [14] was 1.58 µM. The TGI [14] was 4.62 µM, the GI50 [15] was 15.5 µM and the TGI [15] was 35.7 µM. The GI50 [16] was 2.82 µM, the TGI [16] was 18.3 µM and the GI50 [17] was 15.3 µM. For the same compound, the TGI [17] was 42 µM, the GI50 [18] was 5.25 µM and the TGI [18] was 17.4 µM. For the same compound, the GI50 [19] was 7.56 µM, the TGI [19] was 22.6 µM and the GI50 [20] was 2.35 µM. The TGI [20] was 6.9 µM, the GI50 [21] was 17.5 µM and the TGI [21] was 31.3 µM. For the same compound, the GI50 [22] was 1.52 µM, the TGI [22] was 2.95 µM and the GI50 [23] was 11.5 µM. For the same compound, the TGI [23] was 23.7 µM, the GI50 [24] was 16 µM and the TGI [24] was 34.3 µM. It also gave a GI50 [25] of 2.25 µM, a TGI [25] of 6.4 µM and a GI50 [26] of 4 µM. For the same compound, the TGI [26] was 17.4 µM, the GI50 [27] was 12.9 µM and the TGI [27] was 25.6 µM. The GI50 [28] was 3.16 µM, the TGI [28] was 16.1 µM and the GI50 [29] was 14.9 µM. The TGI [29] was 34 µM, the GI50 [30] was 2.24 µM and the TGI [30] was 5.03 µM. For the same compound, the GI50 [31] was 16.3 µM, the TGI [31] was 32 µM and the GI50 [32] was 14 µM. The TGI [32] was 30.9 µM, the GI50 [33] was 14.3 µM and the TGI [33] was 31 µM. It also gave a GI50 [34] of 11.8 µM, a TGI [34] of 24.1 µM and a GI50 [35] of 3.25 µM. The TGI [35] was 11.9 µM, the GI50 [36] was 10.8 µM and the TGI [36] was 31.6 µM. The GI50 [37] was 3.64 µM, the TGI [37] was 18.7 µM and the GI50 [38] was 6.16 µM. The TGI [38] was 20.4 µM, the GI50 [39] was 16.3 µM and the TGI [39] was 37.9 µM. The GI50 [40] was 14.4 µM, the TGI [40] was 28.7 µM and the GI50 [41] was 12.3 µM. It also gave a TGI [41] of 26.5 µM, a GI50 [42] of 14.2 µM and a TGI [42] of 27.2 µM. The GI50 [43] was 15.5 µM, the TGI [43] was 28.9 µM and the GI50 [44] was 15.3 µM. For the same compound, the TGI [44] was 28.6 µM, the GI50 [45] was 15 µM and the TGI [45] was 31.4 µM. It also gave a GI50 [46] of 12 µM, a TGI [46] of 30 µM and a GI50 [47] of 16.7 µM. For the same compound, the TGI [47] was 36.6 µM, the GI50 [48] was 16.8 µM and the TGI [48] was 33.4 µM. It also gave a GI50 [49] of 0.741 µM, a TGI [49] of 6.71 µM and a GI50 [50] of 1.7 µM. It also gave a TGI [50] of 3.7 µM, a GI50 [51] of 7.72 µM and a TGI [51] of 28.9 µM. For the same compound, the GI50 [52] was 22.6 µM, the TGI [52] was 38 µM and the GI50 [53] was 2.5 µM. For the same compound, the TGI [53] was 8.16 µM, the GI50 [54] was 14.7 µM and the TGI [54] was 28.3 µM. The GI50 [55] was 16.9 µM, the TGI [55] was 31.5 µM and the GI50 [56] was 13.3 µM. For the same compound, the TGI [56] was 28.1 µM.

With `CN1CCN(Cc2ccc(NC(=O)c3cncc(C#Cc4cnc5ccc(OCC(F)F)nn45)c3)cc2C(F)(F)F)CC1` the GI50 [1] was 0.451 µM, the TGI [1] was 1.1 µM and the GI50 [2] was 1.37 µM. The TGI [2] was 2.54 µM, the GI50 [3] was 0.221 µM and the TGI [3] was 0.612 µM. The GI50 [4] was 0.482 µM, the TGI [4] was 1.21 µM and the GI50 [5] was 0.93 µM. The TGI [5] was 1.69 µM, the GI50 [6] was 0.473 µM and the TGI [6] was 1.39 µM. The GI50 [7] was 0.192 µM, the TGI [7] was 4.31 µM and the GI50 [8] was 0.428 µM. For the same compound, the TGI [8] was 1.15 µM, the GI50 [9] was 0.339 µM and the TGI [9] was 0.929 µM. For the same compound, the GI50 [10] was 0.348 µM, the TGI [10] was 1.02 µM and the GI50 [11] was 0.516 µM. The TGI [11] was 1.61 µM, the GI50 [12] was 0.164 µM and the TGI [12] was 0.606 µM. For the same compound, the GI50 [13] was 0.207 µM, the TGI [13] was 0.909 µM and the GI50 [14] was 0.222 µM. It also gave a TGI [14] of 0.724 µM, a GI50 [15] of 0.729 µM and a TGI [15] of 1.64 µM. The GI50 [16] was 0.101 µM, the TGI [16] was 0.359 µM and the GI50 [17] was 0.944 µM. For the same compound, the TGI [17] was 3.2 µM, the GI50 [18] was 0.282 µM and the TGI [18] was 1 µM. For the same compound, the GI50 [19] was 0.242 µM, the TGI [19] was 1.03 µM and the GI50 [20] was 0.005 µM. It also gave a TGI [20] of 0.818 µM, a GI50 [21] of 0.005 µM and a TGI [21] of 0.739 µM. It also gave a GI50 [22] of 0.235 µM, a TGI [22] of 0.838 µM and a GI50 [23] of 0.167 µM. The TGI [23] was 0.619 µM, the GI50 [24] was 0.12 µM and the TGI [24] was 0.485 µM. The GI50 [25] was 0.11 µM, the TGI [25] was 0.649 µM and the GI50 [26] was 0.181 µM. For the same compound, the TGI [26] was 0.841 µM, the GI50 [27] was 0.218 µM and the TGI [27] was 0.812 µM. For the same compound, the GI50 [28] was 0.299 µM, the TGI [28] was 2.79 µM and the GI50 [29] was 0.451 µM. The TGI [29] was 1.27 µM, the GI50 [57] was 0.34 µM and the TGI [57] was 1.23 µM. For the same compound, the GI50 [30] was 0.369 µM, the TGI [30] was 1.07 µM and the GI50 [31] was 0.666 µM. It also gave a TGI [31] of 1.53 µM, a GI50 [32] of 1.04 µM and a TGI [32] of 5.09 µM. It also gave a GI50 [58] of 0.46 µM, a TGI [58] of 1.26 µM and a GI50 [33] of 0.562 µM. The TGI [33] was 1.51 µM, the GI50 [34] was 0.68 µM and the TGI [34] was 1.89 µM. It also gave a GI50 [35] of 0.705 µM, a TGI [35] of 1.56 µM and a GI50 [36] of 0.457 µM. It also gave a TGI [36] of 1.97 µM, a GI50 [37] of 0.515 µM and a TGI [37] of 2.18 µM. For the same compound, the GI50 [38] was 0.379 µM, the TGI [38] was 1.06 µM and the GI50 [39] was 0.52 µM. For the same compound, the TGI [39] was 1.43 µM, the GI50 [40] was 0.387 µM and the TGI [40] was 1.2 µM. For the same compound, the GI50 [41] was 0.438 µM, the TGI [41] was 1.1 µM and the GI50 [42] was 0.6 µM. The TGI [42] was 1.28 µM, the GI50 [43] was 0.67 µM and the TGI [43] was 1.52 µM. The GI50 [44] was 0.511 µM, the TGI [44] was 1.22 µM and the GI50 [45] was 1.51 µM. For the same compound, the TGI [45] was 3.78 µM, the GI50 [46] was 0.5 µM and the TGI [46] was 1.17 µM. The GI50 [47] was 1.09 µM, the TGI [47] was 2.85 µM and the GI50 [48] was 0.58 µM. It also gave a TGI [48] of 1.26 µM, a GI50 [49] of 0.206 µM and a TGI [49] of 1.1 µM. For the same compound, the GI50 [50] was 0.275 µM, the TGI [50] was 1.2 µM and the GI50 [51] was 0.419 µM. It also gave a TGI [51] of 1.17 µM, a GI50 [52] of 0.749 µM and a TGI [52] of 1.46 µM. It also gave a GI50 [53] of 0.646 µM, a TGI [53] of 1.34 µM and a GI50 [54] of 0.282 µM. The TGI [54] was 0.963 µM, the GI50 [55] was 0.63 µM and the TGI [55] was 1.33 µM. It also gave a GI50 [56] of 0.571 µM and a TGI [56] of 1.2 µM.

— PubChem BioAssay (NCI)
